Experiments:
Format in all cases: cell-based
[1] = biological target: human androgen receptor (full length, wild-type form) (Homo sapiens (Human), UniProt P10275); assay: Transactivation assay for the wild-type androgen receptor (PC-3 cells, MMTV-luciferase reporter); settings: in the presence of R1881, 16 hours
Description: For determining the androgen receptor-dependent transcription, a cellular assay system was used, consisting of PC-3 cells (Kaighn et al., Invest. Urol. 17: 16-23, 1979), which express the human androgen receptor stably and recombinantly (full length, wild-type form, see Swiss-Prot Acc. No. P10275, Entry Version 159, Sequence Version 2). In addition, these PC3 cells contain a stably integrated reporter gene plasmid, which is based on the commercially available plasmid pGL4.14 (#E6691, Promega Corporation, Madison, Wis., USA) and contains the luciferase gene from the American firefly (Photinus pyralis) under the control of the MMTV promoter (Cato et al., EMBO J. 6: 363-368, 1987). These cells were propagated in routine cell culture at 37° C. and 5% CO2 in a medium containing 90% RPMI 1640 (Invitrogen GmbH, Darmstadt, Germany), 100 U penicillin, 100 μg/ml streptomycin (Invitrogen), 4 mM L-glutamine (Invitrogen), 10% fetal calf serum (FCS Serum Gold, PAA Laboratories GmbH, Cölbe, Germany), 600 μg/ml Geneticin (G418-sulphate, Invitrogen) and 10 μg/ml puromycin (Sigma Aldrich GmbH, Germany).
For carrying out the transactivation assays, approx. 1000 cells per well were plated out in a 384-well cell culture plate in a medium that contained activated charcoal-treated calf serum (FCS Serum Gold, PAA Laboratories) at a concentration of 5% (v/v). The test substances were added in a concentration series from 5.12×10^−12 to 1×10^−5 M in the presence of […] R1881 (methyltrienolone). The test plates were incubated overnight at 37° C. and 5% CO2. After 16 hours, 15 μl of Steady Glo Lysis and Detection reagent (E2550, Promega Corporation, Madison, Wis., USA) was added per well and the luminescence was read in a Topcount Luminometer (PerkinElmer, Waltham, Mass., USA) for 4 seconds per well. The luminescence values obtained were normalized, wherein 100% corresponded to the effect of the unstimulated control (without R1881), and 0% corresponded to the effect of the stimulated control (R1881 plus DMSO instead of test substance). The IC50 value was determined by regression analysis based on a four-parameter equation (minimum, maximum, IC50, Hill coefficient; Y=Max+(Min−Max)/(1+(X/IC50)^Hill)).

[2] = biological target: androgen receptor mutant W741C (Homo sapiens (Human), UniProt P10275, W742C); assay: Transactivation assay for the androgen receptor mutant W741C (transfected PC-3 cells); settings: in the presence of 1×10^−10 M R1881, 24 hours
androgen receptor mutant W741C, sequence (P10275 whole entry W742C): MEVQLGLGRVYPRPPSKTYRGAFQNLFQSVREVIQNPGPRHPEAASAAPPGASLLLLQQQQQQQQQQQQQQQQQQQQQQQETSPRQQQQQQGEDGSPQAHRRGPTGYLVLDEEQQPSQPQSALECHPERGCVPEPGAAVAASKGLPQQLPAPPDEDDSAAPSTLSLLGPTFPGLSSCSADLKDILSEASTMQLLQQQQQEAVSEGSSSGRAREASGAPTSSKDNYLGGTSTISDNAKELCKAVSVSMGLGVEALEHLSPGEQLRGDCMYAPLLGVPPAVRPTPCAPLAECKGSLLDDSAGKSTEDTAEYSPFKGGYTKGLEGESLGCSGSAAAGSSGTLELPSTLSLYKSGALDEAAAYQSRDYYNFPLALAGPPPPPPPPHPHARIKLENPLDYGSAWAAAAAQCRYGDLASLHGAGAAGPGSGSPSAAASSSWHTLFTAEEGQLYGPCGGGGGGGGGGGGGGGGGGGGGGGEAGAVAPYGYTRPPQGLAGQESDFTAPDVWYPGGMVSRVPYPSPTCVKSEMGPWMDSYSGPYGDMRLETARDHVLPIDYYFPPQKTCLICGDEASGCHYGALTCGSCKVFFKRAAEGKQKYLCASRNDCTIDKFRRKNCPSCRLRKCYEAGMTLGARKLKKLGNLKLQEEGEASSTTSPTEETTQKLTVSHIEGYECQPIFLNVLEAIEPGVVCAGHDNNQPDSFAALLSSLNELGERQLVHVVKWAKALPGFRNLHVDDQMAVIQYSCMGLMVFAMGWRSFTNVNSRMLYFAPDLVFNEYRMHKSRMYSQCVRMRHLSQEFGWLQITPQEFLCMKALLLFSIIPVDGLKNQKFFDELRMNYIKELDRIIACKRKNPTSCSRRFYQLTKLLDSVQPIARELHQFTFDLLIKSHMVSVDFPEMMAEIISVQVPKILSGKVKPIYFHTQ
Method: PC-3 cells (Kaighn et al., Invest. Urol. 17: 16-23, 1979) were plated out at a density of 10000 cells per well of a 96-well cell culture plate in RMPI 1640 medium (F1235, Biochrom AG, Berlin, Germany), which contained activated charcoal-treated calf serum (FCS Serum Gold, PAA Laboratories) at a concentration of 5% (v/v). On the next day the cells were transiently transfected with the pSG5-vector (#216201 Stratagene), which contained the sequence of the androgen receptor mutant W741C (Haapala et al., Lab Invest. 81(12): 1647-51, 2001), and with a reporter plasmid based on pGL4.14 (#E6691, Promega) with the luciferase-gene (from Photinus pyralis) under the control of the MMTV promoter (Cato et al., EMBO J. 6: 363-8, 1987). The cells were treated with the test substances in concentrations from 1×10^−8 to 1×10^−10 M in the presence of 1×10^−10 M R1881 and were incubated overnight at 37° C. and 5% CO2. After 24 hours, 100 μl of Steady Glo Lysis and Detection reagent (E2550, Promega) was added per well and the luminescence was read in a Victor3 Luminometer (PerkinElmer) for 1 second per well. The luminescence values obtained were normalized, wherein 100% corresponded to the effect of the unstimulated control (without R1881), and 0% corresponded to the effect of the stimulated control (R1881 plus DMSO instead of test substance). The IC50 value was determined by regression analysis based on a four-parameter equation (minimum, maximum, IC50, Hill coefficient; Y=Max+(Min−Max)/(1+(X/IC50)^Hill)).

[3] = biological target: androgen receptor mutant E709Y (Homo sapiens (Human), UniProt P10275, E710Y); assay: Transactivation assay for the androgen receptor mutant E709Y (transfected PC-3 cells); settings: in the presence of 1×10^−10 M R1881, 24 hours
androgen receptor mutant E709Y, sequence (P10275 whole entry E710Y): as the sequence (P10275 whole entry W742C) above, with E710Y, C742W counted along it
Method: PC-3 cells (Kaighn et al., Invest. Urol. 17: 16-23, 1979) were plated out at a density of 10000 cells per well of a 96-well cell culture plate in RMPI 1640 medium (F1235, Biochrom AG Berlin, Germany) that contained activated charcoal-treated calf serum (FCS Serum Gold, PAA Laboratories) at a concentration of 5% (v/v). On the next day the cells were transiently transfected with the pSG5-vector (#216201 Stratagene), which contained the sequence of the androgen receptor mutant E709Y (Georget et al., Mol. Endocrinol. 20(4): 724-734, 2006), and with the MMTV-luciferase plasmid (see above, transactivation assay for the androgen receptor mutant W741C). The cells were treated with the test substances in concentrations from 1×10^−8 to 1×10^−10 M in the presence of 1×10^−10 M R1881 and were incubated overnight at 37° C. and 5% CO2. After 24 hours, 100 μl of Steady Glo Lysis and Detection reagent (E2550, Promega) was added per well and the luminescence was read in a Victor3 Luminometer (PerkinElmer) for 1 second per well. The luminescence values obtained were normalized, wherein 100% corresponded to the effect of the unstimulated control (without R1881), and 0% corresponded to the effect of the stimulated control (R1881 plus DMSO instead of test substance). The IC50 value was determined by regression analysis based on a four-parameter equation (minimum, maximum, IC50, Hill coefficient; Y=Max+(Min−Max)/(1+(X/IC50)^Hill)).

LAPC-4 cells = assay: Proliferation assay with LAPC-4 cells; settings: Homo sapiens, LAPC4, 168 h; in the presence of 1×10^−9 M R1881, seven days, AlamarBlue; read-out: IC50 LAPC-4 cell proliferation
Method: LAPC-4 cells (Klein et al., Nat Med. 3(4): 402-8, 1997) were plated out at a density of 4000 cells per well of a 96-well cell culture plate in RMPI 1640 medium (F1275, Biochrom AG) that contained activated charcoal-treated calf serum (FCS Serum Gold, PAA Laboratories) at a concentration of 10% (v/v). On the next day the cells were treated with the test substances in concentrations from 1×10^−8 to 1×10^−10 M in the presence of 1×10^−9 M R1881. Cell proliferation was determined seven days later after incubation for 2 hours with AlamarBlue (DAL1100, Invitrogen) (Nakayama et al., J Immunol Methods, 204(2): 205-8, 1997). The fluorescence values obtained were normalized, wherein 100% corresponded to the effect of the unstimulated control (without R1881), and 0% corresponded to the effect of the stimulated control (R1881 plus DMSO instead of test substance). The IC50 value was determined by regression analysis based on a four-parameter equation (minimum, maximum, IC50, Hill coefficient; Y=Max+(Min−Max)/(1+(X/IC50)^Hill)).

LNCaP cells = assay: Proliferation assay with LNCaP cells; settings: Homo sapiens, 168 h, in the presence of 1×10^−10 M R1881, seven days, AlamarBlue, read-out: IC50 LNCaP cell proliferation
Method: LNCaP cells (Horoszewicz et al., in “Models for Prostate Cancer” (ed. G. P. Murphy), Alan R. Liss, New York 1981, p. 115-132; Horoszewicz et al., Cancer Res. 43: 1809-1818, 1983) were plated out at a density of 2000 cells per well of a 96-well cell culture plate in RMPI 1640 medium (F1275, Biochrom AG), which contained activated charcoal-treated calf serum (FCS Serum Gold, PAA Laboratories) at a concentration of 5% (v/v). Three days later the cells were treated with the test substances in concentrations from 1×10^−8 to 1×10^−10 M in the presence of 1×10^−10 M R1881. Cell proliferation was determined seven days later after incubation for 2 hours with AlamarBlue (DAL1100, Invitrogen) (Nakayama et al., J Immunol Methods, 204(2): 205-8, 1997). The fluorescence values obtained were normalized, wherein 100% corresponded to the effect of the unstimulated control (without R1881), and 0% corresponded to the effect of the stimulated control (R1881 plus DMSO instead of test substance). The IC50 value was determined by regression analysis based on a four-parameter equation (minimum, maximum, IC50, Hill coefficient; Y=Max+(Min−Max)/(1+(X/IC50)^Hill)).

human androgen receptor (full length, wild-type form), sequence (P10275 whole entry): as the sequence (P10275 whole entry W742C) above, with C742W counted along it

SMILES	IC50 [1] [nM]	IC50 [2] [nM]	IC50 [3] [nM]	IC50 (LAPC-4 cells) [nM]	IC50 (LNCaP cells) [nM]
O=C(NC[C@H]1CC[C@H](Oc2ccnc3ccccc23)CC1)c1ccc(F)c(F)c1 [Example 9, N-{[trans-4-(4-quinolyloxy)cyclohexyl]methyl}-3,4-difluorobenzamide]	105	72	56	45	–
O=C(NC[C@H]1CC[C@H](Oc2ccnc3ccccc23)CC1)c1cccc(F)c1 [Example 10, N-{[trans-4-(4-quinolyloxy)cyclohexyl]methyl}-3-fluorobenzamide]	194	220	175	130	–
Cc1cc(C(=O)NC[C@H]2CC[C@H](Oc3ccnc4ccccc34)CC2)no1 [Example 11, N-{[trans-4-(4-quinolyloxy)cyclohexyl]methyl}-5-methylisoxazole-3-carboxamide]	210	–	–	118	260
O=C(N[C@H]1CC[C@H](Oc2ccnc3ccccc23)CC1)c1cccc(F)c1 [Example 19, N-{trans-4-(4-quinolyloxy)cyclohexyl}-3-fluorobenzamide]	32	–	–	48	110
N#Cc1cccc2c(O[C@H]3CC[C@H](NC(=O)c4ccc(F)c(F)c4)CC3)ccnc12 [Example 24, N-{trans-4-[(8-cyanoquinolin-4-yl)oxy]cyclohexyl}-3,4-difluorobenzamide]	92	72	14	–	–

From patent US9428460B2, “N-[4-(quinolin-4-yloxy)cyclohexyl(methyl)](hetero)arylcarboxamides as androgen receptor antagonists, production and use thereof as medicinal products” (BAYER PHARMA AKTIENGESELLSCHAFT, priority 2012, dated 2016)
